Test results reported in ChEMBL document CHEMBL4118053, “Antimicrobial Spirotetronate Metabolites from Marine-Derived Micromonospora harpali SCSIO GJ089” (2017).
≈ marks a conversion by molar mass, not a printed value.

Assays:
Format in all cases: functional
Staphylococcus aureus [1] = assay: Antibacterial activity against methicillin-resistant Staphylococcus aureus isolate shhs-A1 by CLSI method
Staphylococcus aureus [2] = assay: Antibacterial activity against Staphylococcus aureus ATCC 29213 by CLSI method
Bacillus thuringiensis = assay: Antibacterial activity against Bacillus thuringiensis BT01 by CLSI method
Bacillus subtilis = assay: Antibacterial activity against Bacillus subtilis BS01 by CLSI method
Enterococcus faecalis = assay: Antibacterial activity against Enterococcus faecalis ATCC 29212 by CLSI method

| SMILES | MIC (Staphylococcus aureus [1]) [µg/mL] | MIC (Staphylococcus aureus [2]) [µg/mL] | MIC (Bacillus thuringiensis) [µg/mL] | MIC (Bacillus subtilis) [µg/mL] | MIC (Enterococcus faecalis) [µg/mL] |
| --- | --- | --- | --- | --- | --- |
| COC(=O)N[C@H]1[C@@H](C)O[C@@H](O[C@H]2C/C=C(\C)[C@@H]3C=C[C@@H]4[C@@H](O[C@H]5C[C@@H](O[C@H]6CC[C@@H](O[C@@H]7C[C@@H](O)[C@@H](O)[C@H](C)O7)[C@H](C)O6)[C@@H](OC(C)=O)[C@H](C)O5)[C@@H](C)C[C@H](C)[C@H]4[C@]3(C)C(=O)C3=C(O)[C@@]4(CC(/C=C/C(C)=O)=C[C@H](O)[C@H]4/C=C/2C)OC3=O)C[C@]1(C)N | > 128 | 128 (≈ 106 µM) | 1 (≈ 0.827 µM) | 2 (≈ 1.65 µM) | > 128 |
| COC(=O)N[C@H]1[C@@H](C)O[C@@H](O[C@H]2C/C=C(\C)[C@@H]3C=C[C@@H]4[C@@H](O[C@H]5C[C@@H](O[C@H]6C[C@@H](O)[C@@H](O[C@@H]7C[C@@H](O)[C@@H](O)[C@H](C)O7)[C@H](C)O6)[C@@H](OC(C)=O)[C@H](C)O5)[C@@H](C)C[C@H](C)[C@H]4[C@]3(C)C(=O)C3=C(O)[C@@]4(CC(/C=C/C(C)=O)=C[C@H](O)[C@H]4/C=C/2C)OC3=O)C[C@]1(C)[N+](=O)[O-] | > 128 | > 128 | 0.25 (≈ 0.199 µM) | 0.5 (≈ 0.398 µM) | 128 (≈ 102 µM) |
| COC(=O)N[C@H]1[C@@H](C)O[C@@H](O[C@H]2C/C=C(\C)[C@@H]3C=C[C@@H]4[C@@H](O[C@H]5C[C@@H](O[C@H]6CC[C@@H](O[C@@H]7C[C@@H](O)[C@@H](O[C@H]8CC[C@@H](O)[C@H](C)O8)[C@H](C)O7)[C@H](C)O6)[C@@H](OC(C)=O)[C@H](C)O5)[C@@H](C)C[C@H](C)[C@H]4[C@]3(C)C(=O)C3=C(O)[C@@]4(CC(/C=C/C(C)=O)=C[C@H](O)[C@H]4/C=C/2C)OC3=O)C[C@]1(C)N | > 128 | > 128 | 1 (≈ 0.756 µM) | 2 (≈ 1.51 µM) | > 128 |
| CN[C@H](CC(C)C)C(=O)N[C@H]1C(=O)N[C@@H](CC(N)=O)C(=O)N[C@H]2C(=O)N[C@H]3C(=O)N[C@H](C(=O)N[C@H](C(=O)O)c4cc(O)cc(O)c4-c4cc3ccc4O)[C@H](O)c3ccc(c(Cl)c3)Oc3cc2cc(c3O[C@@H]2O[C@H](CO)[C@@H](O)[C@H](O)[C@H]2O[C@H]2C[C@](C)(N)[C@H](O)[C@H](C)O2)Oc2ccc(cc2Cl)[C@H]1O [VANCOMYCIN] |  |  | 2 (≈ 1.38 µM) | 1 (≈ 0.69 µM) |  |
| CC1(C)S[C@@H]2[C@H](NC(=O)[C@H](N)c3ccccc3)C(=O)N2[C@H]1C(=O)O [AMPICILLIN] | 1 (≈ 2.86 µM) | 2 (≈ 5.72 µM) | 32 (≈ 91.6 µM) | 0.25 (≈ 0.715 µM) | 2 (≈ 5.72 µM) |
| C/C1=C\[C@@H]2C=C[C@H](C)C[C@]23OC(=O)C(=C3O)C(=O)[C@@]2(C)[C@H]3[C@H](C=C[C@H]2/C(C)=C/C[C@@H]1O)[C@@H](O)[C@@H](C)C[C@@H]3C | 128 (≈ 245 µM) | 128 (≈ 245 µM) | 64 (≈ 122 µM) | 64 (≈ 122 µM) | 128 (≈ 245 µM) |
| C/C1=C\[C@@H]2C=C[C@H](C)C[C@]23OC(=O)C(=C3O)C(=O)[C@@]2(C)[C@H]3[C@H](C=C[C@H]2/C(C)=C/C[C@@H]1O)[C@@H](O)[C@](C)(O)C[C@@H]3C | > 128 | > 128 | > 128 | > 128 | > 128 |
| NC[C@H]1O[C@H](O[C@H]2[C@H](O)[C@@H](O[C@H]3O[C@H](CO)[C@@H](O)[C@H](N)[C@H]3O)[C@H](N)C[C@@H]2N)[C@H](O)[C@@H](O)[C@@H]1O [KANAMYCIN] | 64 (≈ 132 µM) | 16 (≈ 33 µM) | 8 (≈ 16.5 µM) | 8 (≈ 16.5 µM) | 32 (≈ 66 µM) |
| COC(=O)N[C@H]1[C@@H](C)O[C@@H](O[C@H]2C/C=C(\C)[C@@H]3C=C[C@@H]4[C@@H](O[C@H]5C[C@@H](O[C@H]6CC[C@@H](O[C@@H]7C[C@@H](O)[C@@H](O[C@H]8CC[C@@H](O)[C@H](C)O8)[C@H](C)O7)[C@H](C)O6)[C@@H](OC(C)=O)[C@H](C)O5)[C@@H](C)C[C@H](C)[C@H]4[C@]3(C)C(=O)C3=C(O)[C@@]4(CC(C=O)=C[C@H](O)[C@H]4/C=C/2C)OC3=O)C[C@]1(C)N | > 128 | > 128 | 1 (≈ 0.779 µM) | 2 (≈ 1.56 µM) | > 128 |
| COC(=O)N[C@H]1[C@@H](C)O[C@@H](O[C@H]2C/C=C(\C)[C@@H]3C=C[C@@H]4[C@@H](O[C@H]5C[C@@H](O[C@H]6C[C@@H](O)[C@@H](O[C@@H]7C[C@@H](O)[C@@H](O)[C@H](C)O7)[C@H](C)O6)[C@@H](OC(C)=O)[C@H](C)O5)[C@@H](C)C[C@H](C)[C@H]4[C@]3(C)C(=O)C3=C(O)[C@@]4(CC(/C=C/C(C)=O)=C[C@H](O)[C@H]4/C=C/2C)OC3=O)C[C@]1(C)N | > 128 | > 128 | 4 (≈ 3.26 µM) | 8 (≈ 6.53 µM) | > 128 |
| COC(=O)N[C@H]1[C@@H](C)O[C@@H](O[C@H]2C/C=C(\C)[C@@H]3C=C[C@@H]4[C@@H](O[C@H]5C[C@@H](O[C@H]6CC[C@@H](O[C@@H]7C[C@@H](O)[C@@H](O[C@H]8CC[C@@H](O)[C@H](C)O8)[C@H](C)O7)[C@H](C)O6)[C@@H](OC(C)=O)[C@H](C)O5)[C@@H](C)C[C@H](C)[C@H]4[C@]3(C)C(=O)C3=C(O)[C@@]4(CC(C=O)=C[C@H](O)[C@H]4/C=C/2C)OC3=O)C[C@]1(C)[N+](=O)[O-] | 32 (≈ 24.4 µM) | 32 (≈ 24.4 µM) | 0.016 (≈ 0.0122 µM) | 0.03 (≈ 0.0228 µM) | 64 (≈ 48.7 µM) |
| COC(=O)N[C@H]1[C@@H](C)O[C@@H](O[C@H]2C/C=C(\C)[C@@H]3C=C[C@@H]4[C@@H](O[C@H]5C[C@@H](O[C@H]6CC[C@@H](O[C@@H]7C[C@@H](O)[C@@H](O)[C@H](C)O7)[C@H](C)O6)[C@@H](OC(C)=O)[C@H](C)O5)[C@@H](C)C[C@H](C)[C@H]4[C@]3(C)C(=O)C3=C(O)[C@@]4(CC(C=O)=C[C@H](O)[C@H]4/C=C/2C)OC3=O)C[C@]1(C)[N+](=O)[O-] | 32 (≈ 26.7 µM) | 32 (≈ 26.7 µM) | 0.063 (≈ 0.0525 µM) | 0.063 (≈ 0.0525 µM) | 64 (≈ 53.4 µM) |
| COC(=O)N[C@H]1[C@@H](C)O[C@@H](O[C@H]2C/C=C(\C)[C@@H]3C=C[C@@H]4[C@@H](O[C@H]5C[C@@H](O[C@H]6CC[C@@H](O[C@@H]7C[C@@H](O)[C@@H](O)[C@H](C)O7)[C@H](C)O6)[C@@H](OC(C)=O)[C@H](C)O5)[C@@H](C)C[C@H](C)[C@H]4[C@]3(C)C(=O)C3=C(O)[C@@]4(CC(/C=C/C(C)=O)=C[C@H](O)[C@H]4/C=C/2C)OC3=O)C[C@]1(C)[N+](=O)[O-] | 32 (≈ 25.8 µM) | 32 (≈ 25.8 µM) | 0.063 (≈ 0.0508 µM) | 0.13 (≈ 0.105 µM) | 64 (≈ 51.6 µM) |
| COC(=O)N[C@H]1[C@@H](C)O[C@@H](O[C@H]2C/C=C(\C)[C@@H]3C=C[C@@H]4[C@@H](O[C@H]5C[C@@H](O[C@H]6CC[C@@H](O[C@@H]7C[C@@H](O)[C@@H](O[C@H]8CC[C@@H](O)[C@H](C)O8)[C@H](C)O7)[C@H](C)O6)[C@@H](OC(C)=O)[C@H](C)O5)[C@@H](C)C[C@H](C)[C@H]4[C@]3(C)C(=O)C3=C(O)[C@@]4(CC(/C=C/C(C)=O)=C[C@H](O)[C@H]4/C=C/2C)OC3=O)C[C@]1(C)[N+](=O)[O-] | 32 (≈ 23.6 µM) | 32 (≈ 23.6 µM) | 0.016 (≈ 0.0118 µM) | 0.03 (≈ 0.0222 µM) | 64 (≈ 47.3 µM) |
| COC(=O)N[C@H]1[C@@H](C)O[C@@H](O[C@H]2C/C=C(\C)[C@@H]3C=C[C@@H]4[C@@H](O[C@H]5C[C@@H](O[C@H]6CC[C@@H](O[C@@H]7C[C@@H](O)[C@@H](O)[C@H](C)O7)[C@H](C)O6)[C@@H](OC(C)=O)[C@H](C)O5)[C@@H](C)C[C@H](C)[C@H]4[C@]3(C)C(=O)C3=C(O)[C@@]4(CC(C=O)=C[C@H](O)[C@H]4/C=C/2C)OC3=O)C[C@]1(C)N | > 128 | > 128 | 1 (≈ 0.855 µM) | 2 (≈ 1.71 µM) | > 128 |
